According to PubChem BioAssay (NCI):
Several values for one entry are separate records, joined by “and”; a condition that tells them apart may be missing. Identical values can stand only once.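 Five concentrations, 48 hours, 96-well plates. GI50 = concentration required for 50% inhibition of growth. TGI: total growth inhibition.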 Activity calls are given as the source filed them. No stated cut-off is given here; in the data, active means GI50 below about 0.43 µM; inactive means the rest.

Legend:
Experiment in all cases: DTP human tumour cell line panel, 48 h
[1] = tested on: LXFL 529 NSCLC
[2] = tested on: NCI-H522 lung
[3] = tested on: NCI-H460 lung
[4] = tested on: NCI-H226 lung
[5] = tested on: RPMI-8226 leukemia
[6] = tested on: UACC-257 melanoma
[7] = tested on: KM12 colon
[8] = tested on: SK-MEL-2 melanoma
[9] = tested on: OVCAR-8 ovarian

Row | Compound | TGI [1] | TGI [2] | TGI [3] | TGI [4] | TGI [5] | TGI [6] | TGI [7] | TGI [8] | TGI [9] | GI50 [2] | GI50 [3] | GI50 [4] | GI50 [5] | GI50 [6] | GI50 [7] | GI50 [8] | GI50 [9] | outcome [1] | GI50 [1]
1 | O=C(Cc1ccccc1)C(c1ccccc1)S(=O)(=O)c1ccccc1 (stereo not drawn) | > 100 µM | > 100 µM | > 100 µM | > 100 µM | > 100 µM | > 100 µM | > 100 µM | > 100 µM | > 100 µM | – | – | – | – | – | – | – | – | – | –
2 | O=c1[nH]c2ccccc2n1C1CCN(CCCC(c2ccc(F)cc2)c2ccc(F)cc2)CC1 | 13.4 µM | 3.36 µM and 10.4 µM | 3.4 µM and 12 µM | 2.97 µM and 20.3 µM | 8.97 µM and 20.4 µM | 3.24 µM and 7.83 µM | 3.4 µM and 22.1 µM | 3.96 µM and 12.3 µM | 3.28 µM and 24.3 µM | 1730 nM | 1750 nM and 4260 nM | 1.51 µM and 6.66 µM | 2060 nM and 3960 nM | 1580 nM and 2830 nM | 1760 nM and 6970 nM | 2.1 µM and 5.52 µM | 1.58 µM and 9.14 µM | – | –
3 | CC(N)CC(=O)O (stereo not drawn) | > 5000 µM | > 5000 µM | > 5000 µM | > 5000 µM | > 5000 µM | > 5000 µM | > 5000 µM | > 5000 µM | – | – | – | – | – | – | – | – | – | – | –
4 | C#CCNC(=O)NC(CCCCNC(=O)OCc1ccccc1)C(=O)OCc1ccccc1 (stereo not drawn) | > 100 µM | 17.1 µM | > 100 µM | > 100 µM | 70.9 µM | 43.9 µM | > 100 µM | > 75.8 µM | > 100 µM | – | – | – | – | – | – | – | – | – | –
5 | O=C(CO)C1CC2C=CC1C2 (stereo not drawn) | > 100 µM | > 100 µM | > 100 µM | – | > 100 µM | > 100 µM | > 100 µM | > 100 µM | > 100 µM | – | – | – | – | – | – | – | – | – | –
6 | CC(=O)CC(=O)CCC(=O)Nc1cccc(C(F)(F)F)c1 | > 100 µM | > 100 µM | > 100 µM | > 100 µM | > 100 µM | > 100 µM | > 100 µM | > 100 µM | > 100 µM | – | – | – | – | – | – | – | – | – | –
7 | O=[N+]([O-])/C=C/c1ccc(Cl)cc1Cl | 27.1 µM | 29.8 µM | 37.4 µM | 32.2 µM | 5.66 µM | 27.4 µM | 29.6 µM | 40.2 µM | 67.7 µM | – | – | – | – | – | – | – | – | – | –
8 | CCOC(=O)C(CCCNC(=O)OC(C)(C)C)N(Cc1ccc(OC)cc1OC)C(=O)CC(=O)CP(=O)(OCC)OCC (stereo not drawn) | > 100 µM | > 100 µM | > 100 µM | > 100 µM | > 100 µM | > 100 µM | > 100 µM | > 100 µM | > 100 µM | – | – | – | – | – | – | – | – | – | –
9 | O=C(c1c(O)cc(O)cc1O)C1Cc2ccccc21 (stereo not drawn) | > 100 µM | > 100 µM | > 100 µM | > 100 µM | > 100 µM | > 100 µM | > 100 µM | > 100 µM | > 100 µM | – | – | – | – | – | – | – | – | – | –
10 | COc1c(OC(C)C)cc2cc(O)c(C(=O)NC3Cc4ccc(c(Cl)n4)O[C@@H]4C=C5C#C/C(=C\C#CC6OC56C4OC4CC(C)(O)C(O)C(C)O4)C(OC4CC(O)C(N(C)C)C(C)O4)COC3=O)cc2c1OC (stereo partly drawn) | – | > 36.3 µM and 15.8 µg/mL | > 36.3 µM and 7.13 µg/mL | > 36.3 µM and 37.5 µg/mL | 3.67 µg/mL | > 36.3 µM and 37.5 µg/mL | > 36.3 µM and 37.5 µg/mL | > 36.3 µM and 31.8 µg/mL | > 36.3 µM and 37.5 µg/mL | 29.6 µM and 1.25 µg/mL | 3.81 µM and 0.0528 µg/mL | 2.8 µg/mL | 0.348 µg/mL | 21.9 µM and 1.08 µg/mL | > 36.3 µM and 10.1 µg/mL | 10 µg/mL | 26.7 µM and 1.18 µg/mL | inactive | –
11 | CC(=O)[CH-]C(C)=O.CC(=O)[CH-]C(C)=O.CC(=O)[CH-]C(C)=O.[Ga+3] | > 100 µM | > 100 µM | > 100 µM | > 100 µM | > 100 µM | – | > 100 µM | > 100 µM | > 100 µM | > 100000 nM | > 100000 nM | > 100 µM | > 100000 nM | – | > 100000 nM | > 100 µM | > 100 µM | – | > 100 µM
12 | CC1CCC2(C)C(CC=C(C=O)C2(O)C=O)C12CO2 (stereo not drawn) | 3.33 µM | 5.89 µM | 7.7 µM | 4.99 µM | 6.83 µM | 3.79 µM | 11.4 µM | 8.53 µM | 6.69 µM | – | – | – | – | – | – | – | – | – | –
13 | N#CNC1=NC(N)C(c2nc3ccccc3[nH]2)=C(CCCC(=O)Nc2cccc([N+](=O)[O-])c2)N1 (stereo not drawn) | > 100 µM | > 100 µM | > 100 µM | > 100 µM | > 100 µM | > 100 µM | > 100 µM | > 100 µM | > 100 µM | – | – | – | – | – | – | – | – | – | –
14 | CC(C)OC(=O)C1Cc2c([nH]c3ccccc23)C(c2ccccc2)N1 (stereo not drawn) | > 100 µM | > 100 µM | > 100 µM | > 100 µM | > 100 µM | > 100 µM | > 100 µM | 41.2 µM | > 100 µM | – | – | – | – | – | – | – | – | – | –
15 | C[P+]1(c2ccccc2)CCCCC1 | > 100 µM | – | > 100 µM | – | > 100 µM | > 100 µM | > 100 µM | > 100 µM | > 100 µM | – | – | – | – | – | – | – | – | – | –
16 | C=C1C=CC2(Br)OC3CC(C)(Cl)C(Br)CC13C2(C)C (stereo not drawn) | > 100 µM | 30.1 µM | 46 µM | 34.1 µM | 53.1 µM | 42.8 µM | 58.9 µM | 31.9 µM | 77.1 µM | – | – | – | – | – | – | – | – | – | –
17 | Cn1nc(-c2ccccc2)c(C(=O)/C=C/c2ccc(Cl)cc2)c(N2CCOCC2)c1=O | 9.89 µM | 9.46 µM | 12.2 µM | – | 6.74 µM | – | – | – | 26.2 µM | – | – | – | – | – | – | – | – | – | –
18 | Cc1cc(O)c2c3c(ccc2c1)C(=O)c1c(O)cccc1C3=O | – | > 32.3 µM | > 27 µM | > 100 µM | > 100 µM | > 100 µM | > 37.8 µM | > 100 µM | > 100 µM | – | – | – | – | – | – | – | – | – | –
19 | COc1cc(C(=O)/C=C/c2c(C(F)(F)F)nc3ccccn23)cc(OC)c1OC | – | 3.91 µM | 13.4 µM | 21.7 µM | > 100 µM | 5.08 µM | 3.64 µM | 6.07 µM | > 100 µM | 1770 nM | 2010 nM | 3.55 µM | 2910 nM | 2050 nM | 1730 nM | 2.43 µM | 3.39 µM | – | –
20 | COCCOCCOCCOCCOC(=O)OC[n+]1ccc(NC(=NCCCCCCOc2ccc(Cl)cc2)NC#N)cc1 | – | 18.7 µM | 19.2 µM | 30.4 µM | 3.13 µM | 21.8 µM | 17.3 µM | 27.3 µM | 20.8 µM | – | 124 nM | 12.7 µM | < 10 nM | 7790 nM | < 37.7 nM | 11.4 µM | < 0.01 µM | – | –
21 | N#C/C(=C\c1cc2ccc(N3CCC3)cc2oc1=O)C(=O)N(CC(=O)O)CC(=O)O | – | > 100 µM | > 100 µM | > 100 µM | > 100 µM | > 100 µM | > 100 µM | > 100 µM | > 100 µM | > 100000 nM | > 100000 nM | > 100 µM | > 100000 nM | > 100000 nM | > 100000 nM | > 100 µM | > 100 µM | – | –
